We go through 9 molecules from patent US9328106B2, “Cyclic ether pyrazol-4-yl-heterocyclyl-carboxamide compounds and methods of use” (Genentech, Inc., priority 2012, dated 2016).

Some results are limits rather than exact numbers.

One data set deals with PIM1 (Homo sapiens (Human), UniProt P11309). The data set can be described thus: biochemical. In kind it is biochemical. The note with it: 20 pM PIM1, 1 μM FAM-peptide, 10 μM ATP, 90 minutes at room temperature; read-out: PIM1 LC3K (KI).
The next data set concerns the target hERG potassium channel (Homo sapiens (Human), UniProt Q12809). The data set can be described thus: hERG assay (IC50), automated PatchXpress in hERG-expressing HEK-293 cells. It counts as cell-based. The note with it: 0.01-100 μM, 5 minutes after adding test article; for IC20 at 5 min: human, HEK-293 cells that express hERG. A general note: hERG is a cardiac potassium channel; its block is linked to QT prolongation.

The next data set has as its system BaF3 parental cells. The data set can be described thus: In vitro cell proliferation, BaF3 parental line + IL3.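 Also: BaF3 parental cells are murine IL-3 dependent pro-B cells grown with 2 ng/mL mIL-3, 384-well format, viability read by luminescence.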 In kind it is cell-based, murine. The note with it: Mus musculus, BaF3, BaF3 parental, mIL-3, incubated overnight, CELL TITER GLO; read-out: Prolif BaF3 IL3 (IC50). (In general: ATP-based viability assays read luminescence as a measure of living cells.)

In data set [1] the test system is MM1.S (multiple myeloma) cells. The data set can be described thus: In vitro cell proliferation, MM1.S multiple myeloma cells.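 Also: cells cultured in RPMI with 10% FBS and 2 mM L-Glutamine, seeded in 384-well plates, exposed to compound, cell viability measured by luminescence after CellTiter-Glo addition.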 It counts as cell-based. The settings on record: Homo sapiens, MM1.S, 72 h, MM1.S cells, 72 hours, CELL TITER GLO; read-out: Prolif MM1S ATP (EC50).
Procedure: BaF3 parental line was obtained from the DSMZ repository. […] Media for BaF3 parental line contained RPMI, 10% FBS, 2 mM L-Glutamine, 2 ng/mL mIL-3. Media for BaF3 PIM1 & 2 lines contained RPMI, 10% FBS, 2 mM L-Glutamine, 250 μg/mL. Media for MM1.S (multiple myeloma cells) line contained RPMI, 10% FBS, 2 mM L-Glutamine.
BaF3, a murine interleukin-3 dependent pro-B cell line, parental cells, BaF3 PIM1 cells, BaF3 PIM2 cells, and MM1.S (multiple myeloma) cells were seeded at 2 k/well, 5 k/well, 5 k/well, and 10 k/well respectively, in a 384-well plate, at 45 μL/well. Test compound was added at 5 μL/well. BaF3 cells (parental and transfected) were incubated overnight, while MM1.S cells were incubated for 72 hours at 37° C., 5% CO2. CELL TITER GLO® Reagent (Promega) was added at 50 μL/well, the plates were incubated for 30 minutes, and their luminescence read on an HT Analyst. IC50/EC50 values for the test compound were calculated.
The next data set deals with BaF3 PIM1 cells. The data set can be described thus: In vitro cell proliferation, BaF3 transfected with PIM1.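 Also: murine IL-3-dependent pro-B BaF3 cells transfected with PIM1, compound exposure overnight at 37 °C under 5% CO2, viability read as luminescence.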 The note with it: Mus musculus, BaF3, read-out: Prolif BaF3 PIM1 (IC50), BaF3 PIM1 cells, incubated overnight, CELL TITER GLO. In kind it is cell-based, murine.

Chain of PIM1 (P11309 whole entry): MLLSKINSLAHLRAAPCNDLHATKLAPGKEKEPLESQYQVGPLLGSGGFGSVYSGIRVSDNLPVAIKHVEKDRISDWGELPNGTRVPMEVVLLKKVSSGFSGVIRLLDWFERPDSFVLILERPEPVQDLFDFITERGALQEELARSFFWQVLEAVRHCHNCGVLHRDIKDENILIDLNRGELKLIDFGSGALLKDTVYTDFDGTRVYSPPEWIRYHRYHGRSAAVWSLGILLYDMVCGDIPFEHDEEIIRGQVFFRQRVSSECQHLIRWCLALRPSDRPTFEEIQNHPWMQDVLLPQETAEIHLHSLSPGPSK
Chain of hERG potassium channel (Q12809 whole entry): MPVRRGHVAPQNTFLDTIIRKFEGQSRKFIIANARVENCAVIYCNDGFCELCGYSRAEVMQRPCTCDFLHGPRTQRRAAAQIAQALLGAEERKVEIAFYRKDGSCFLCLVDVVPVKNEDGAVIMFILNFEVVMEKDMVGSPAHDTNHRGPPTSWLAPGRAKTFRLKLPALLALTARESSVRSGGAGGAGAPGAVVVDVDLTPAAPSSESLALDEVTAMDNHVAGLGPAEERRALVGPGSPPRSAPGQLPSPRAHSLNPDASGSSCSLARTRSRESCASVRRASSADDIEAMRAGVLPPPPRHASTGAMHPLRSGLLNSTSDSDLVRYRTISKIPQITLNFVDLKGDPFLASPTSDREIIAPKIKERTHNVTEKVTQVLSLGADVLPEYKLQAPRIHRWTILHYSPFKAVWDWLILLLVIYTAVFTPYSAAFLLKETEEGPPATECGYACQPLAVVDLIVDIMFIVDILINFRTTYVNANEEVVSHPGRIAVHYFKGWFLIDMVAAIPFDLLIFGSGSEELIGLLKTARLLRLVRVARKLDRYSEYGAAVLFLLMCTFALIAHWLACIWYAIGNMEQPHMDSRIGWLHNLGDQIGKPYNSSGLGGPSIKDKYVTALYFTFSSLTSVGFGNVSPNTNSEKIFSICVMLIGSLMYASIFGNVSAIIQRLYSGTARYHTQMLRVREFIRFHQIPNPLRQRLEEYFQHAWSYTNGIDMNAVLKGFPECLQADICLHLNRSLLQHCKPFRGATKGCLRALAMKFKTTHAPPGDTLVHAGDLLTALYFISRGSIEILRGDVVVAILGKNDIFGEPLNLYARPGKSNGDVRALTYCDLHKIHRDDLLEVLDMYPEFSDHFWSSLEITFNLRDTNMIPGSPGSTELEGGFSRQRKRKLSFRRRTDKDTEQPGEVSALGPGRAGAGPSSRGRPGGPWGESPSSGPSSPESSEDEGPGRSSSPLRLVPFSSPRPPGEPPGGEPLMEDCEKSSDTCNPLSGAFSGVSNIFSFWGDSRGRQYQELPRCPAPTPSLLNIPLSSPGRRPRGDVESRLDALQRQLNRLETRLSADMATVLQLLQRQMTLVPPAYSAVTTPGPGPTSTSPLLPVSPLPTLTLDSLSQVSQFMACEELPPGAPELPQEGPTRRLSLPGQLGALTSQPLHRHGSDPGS
Procedure for hERG potassium channel: The in vitro potential for hERG potassium channel current inhibition was assessed according to the study site standard procedures (ChanTest, Cleveland, Ohio). In brief, hERG inhibition (% max) was determined in hERG-expressing HEK-293 cells (n=2/concentration) using the automated PatchXpress 7000A system (Molecular Devices, Sunnyvale, Calif.) for 5 minutes after adding the test article.

For the molecule `CO[C@H]1CO[C@H](c2c(NC(=O)c3nc(-c4c(F)cccc4F)sc3N)cnn2C)CC[C@H]1N` [Example 154, 5-Amino-N-[5-[(2S,5R,6R)-5-amino-6-methoxy-oxepan-2-yl]-1-methyl-pyrazol-4-yl]-2-(2,6-difluorophenyl)thiazole-4-carboxamide], at PIM1, the Ki – broadly, a measure of affinity in units of concentration, obtained from inhibition or displacement – stood at 8 pM. Also, on hERG potassium channel, half-maximal inhibition (IC50) required 9.1 µM and the IC20 (commonly the point of the concentration-response curve where the effect stands at 20%) at 5 min was determined as 1.6 µM.
For `Cn1ncc(NC(=O)c2nc(-c3c(F)cccc3F)sc2N)c1[C@@H]1CC[C@@H](N)[C@H](F)CO1` [Example 177, 5-Amino-N-[5-[(2S,5R,6S)-5-amino-6-fluoro-oxepan-2-yl]-1-methyl-pyrazol-4-yl]-2-(2,6-difluorophenyl)thiazole-4-carboxamide], in that order: 3.42 pM, 16 µM and 3.9 µM.
Regarding `Cn1ncc(NC(=O)c2csc(-c3cc[nH]n3)n2)c1[C@@H]1CC[C@@H](N)[C@H](F)CO1` [Example 379, N-[5-[(2S,5R,6S)-5-amino-6-fluoro-oxepan-2-yl]-1-methyl-pyrazol-4-yl]-2-(1H-pyrazol-3-yl)thiazole-4-carboxamide], the IC50 – broadly, the concentration that inhibits the measured activity by half – in the data set with BaF3 parental cells is more than 25 µM; in the data set with BaF3 PIM1 cells it was 0.98 µM. Further, the Ki at PIM1 worked out at 129 pM. Besides, the EC50 (in general, the concentration at which the effect is half-maximal) in data set [1] is 2.9 µM.
For `Cn1ncc(NC(=O)c2csc(-c3n[nH]c4ccccc34)n2)c1[C@@H]1CC[C@@H](N)[C@H](F)CO1` [Example 381, N-(5-((2S,5R,6S)-5-amino-6-fluorooxepan-2-yl)-1-methyl-1H-pyrazol-4-yl)-2-(1H-indazol-3-yl)thiazole-4-carboxamide], in that order: 5.8 µM, 0.0794 µM, 22 pM and 0.64 µM.
`Cn1ncc(NC(=O)c2csc(-c3cccnc3)n2)c1[C@@H]1CC[C@@H](N)[C@H](F)CO1` [Example 383, N-[5-[(2S,5R,6S)-5-amino-6-fluoro-oxepan-2-yl]-1-methyl-pyrazol-4-yl]-2-(3-pyridyl)thiazole-4-carboxamide]: the IC50 with BaF3 parental cells amounted to 20.8 µM; with BaF3 PIM1 cells, 0.823 µM. Moreover, on PIM1, the Ki is 991 pM. For the same molecule, the EC50 in data set [1] worked out at 5.7 µM.
In the case of `CC(C)Oc1ncccc1-c1nc(C(=O)Nc2cnn(C)c2[C@@H]2CC[C@@H](N)[C@H](F)CO2)cs1` [Example 384, N-[5-[(2S,5R,6S)-5-amino-6-fluoro-oxepan-2-yl]-1-methyl-pyrazol-4-yl]-2-(2-isopropoxy-3-pyridyl)thiazole-4-carboxamide], the IC50 in the data set on BaF3 parental cells was 7.2 µM; in the data set with BaF3 PIM1 cells, 5.6 µM. Besides, the Ki on PIM1 came out at 9700 pM. The EC50 in data set [1] worked out at 4.4 µM.
The corresponding values for `CN(C)c1ccc(-c2nc(C(=O)Nc3cnn(C)c3[C@@H]3CC[C@@H](N)[C@H](F)CO3)cs2)cn1` [Example 385, N-[5-[(2S,5R,6S)-5-amino-6-fluoro-oxepan-2-yl]-1-methyl-pyrazol-4-yl]-2-[6-(dimethylamino)-3-pyridyl]thiazole-4-carboxamide] are 12 µM, 0.118 µM, 200 pM and 1.2 µM.
The corresponding values for `Cn1ncc(NC(=O)c2csc(-c3cc(=O)n(C)cc3F)n2)c1[C@@H]1CC[C@@H](N)[C@H](F)CO1` [Example 387, N-(5-((2S,5R,6S)-5-amino-6-fluorooxepan-2-yl)-1-methyl-1H-pyrazol-4-yl)-2-(5-fluoro-1-methyl-2-oxo-1,2-dihydropyridin-4-yl)thiazole-4-carboxamide] are 8.2 µM, 3.2 µM, 954 pM and 2 µM.
As to `Cn1ncc(NC(=O)c2nc(-c3c(F)cccc3F)sc2N)c1N1CC[C@@H](N)[C@H](F)CC1` [No. 139 of US 2013/0079321, 5-amino-N-(5-((4R,5R)-4-amino-5-fluoroazepan-1-yl)-1-methyl-1H-pyrazol-4-yl)-2-(2,6-difluorophenyl)thiazole-4-carboxamide, reference compound], on hERG potassium channel, it took 0.7 µM to reach the 20% level (IC20 at 5 min).
